Where “and” joins values, the source holds several entries; their conditions need not be identical. Identical values can stand only once. Toxic doses and inconclusive results are not listed.
Test system: B6C3F1 mice, B16 melanoma ip, median survival T/C
Assay: NCI In Vivo Anticancer Drug Screen. Data for tumor model B16 Melanoma (intraperitoneal) in B6C3F1 mice
Details: endpoint: median survival time, higher = longer survival
Outline: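 Mice bearing transplanted tumor were dosed with compound or vehicle, and survival was recorded. Activity is expressed as the treated-group measurement (T) divided by the vehicle control measurement (C).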

[1] = dose: 50.0 mg/kg/injection, schedule: Q01DX009 (ip), vehicle: saline with Tween-80
[2] = dose: 100.0 mg/kg/injection, schedule: Q01DX009 (ip), vehicle: saline with Tween-80
[3] = dose: 400.0 mg/kg/injection, schedule: Q01DX009 (ip), vehicle: saline with Tween-80
[4] = dose: 0.12 mg/kg/injection, schedule: Q01DX009 (ip), vehicle: saline
[5] = dose: 0.25 mg/kg/injection, schedule: Q01DX009 (ip), vehicle: saline
[6] = dose: 0.5 mg/kg/injection, schedule: Q01DX009 (ip), vehicle: saline
[7] = dose: 200.0 mg/kg/injection, schedule: Q01DX009 (ip), vehicle: saline with Tween-80
[8] = dose: 12.5 mg/kg/injection, schedule: Q01DX009 (ip), vehicle: Klucel (hydroxypropylcellulose) (HPC)
[9] = dose: 25.0 mg/kg/injection, schedule: Q01DX009 (ip), vehicle: Klucel (hydroxypropylcellulose) (HPC)
[10] = dose: 50.0 mg/kg/injection, schedule: Q01DX009 (ip), vehicle: Klucel (hydroxypropylcellulose) (HPC)
[11] = dose: 3.12 mg/kg/injection, schedule: Q01DX009 (ip), vehicle: distilled water + Tween-80
[12] = dose: 12.5 mg/kg/injection, schedule: Q01DX009 (ip), vehicle: distilled water + Tween-80
[13] = dose: 25.0 mg/kg/injection, schedule: Q01DX009 (ip), vehicle: saline with Tween-80
[14] = dose: 12.5 mg/kg/injection, schedule: Q01DX009 (ip), vehicle: saline with Tween-80
[15] = dose: 6.25 mg/kg/injection, schedule: Q01DX009 (ip), vehicle: saline with Tween-80
[16] = dose: 12.5 mg/kg/injection, schedule: Q01DX009 (ip), vehicle: saline
[17] = dose: 25.0 mg/kg/injection, schedule: Q01DX009 (ip), vehicle: saline

CC(=O)O[C@H]1C(=O)[C@@]2(C)C(C(OC(=O)c3ccccc3)[C@]3(O)C[C@H](OC(=O)C(OC(=O)CCCC(=O)NCCCN(C)C)C(NC(=O)c4ccccc4)c4ccccc4)C(C)=C1C3(C)C)C1(OC(C)=O)COC1C[C@@H]2O (stereo partly drawn) was tested, and the T/C (dose: 10.0 mg/kg/injection, schedule: Q01DX009 (ip), vehicle: water) was 191 % of control, the T/C (dose: 20.0 mg/kg/injection, schedule: Q01DX009 (ip), vehicle: water) was 229 % of control and the T/C (dose: 40.0 mg/kg/injection, schedule: Q01DX009 (ip), vehicle: water) was 289 % of control.
For CCN(CC)CCNc1ccc(C)c2sc3ccc(O)cc3c(=O)c12, the T/C [1] was 150 % of control and the T/C [2] was 191 % of control.
CC(=O)Oc1[nH]c(=O)c2cccc3c2c1CCC3 was tested, and the T/C [3] was 120 % of control.
For CNC(=O)O/N=C(\CN=[N+]=[N-])C(C)(C)C, the T/C [4] was 104 % of control, the T/C [5] was 99 % of control and the T/C [6] was 118 % of control. The T/C (dose: 1.0 mg/kg/injection, schedule: Q01DX009 (ip), vehicle: saline) was 101 % of control.
For O=C(NC(CSSCC(NC(=O)c1ccccc1)C(=O)O)C(=O)O)c1ccccc1 (stereo not drawn), the T/C [1] was 109 % of control, the T/C [2] was 108 % of control and the T/C [7] was 106 % of control. The T/C [3] was 100 % of control.
In the case of COC(=O)NC1C(C)OC(OC2C/C=C(/C)C3C=CC4C(OC5CC(OC6CC(O)C(OC7CC(O)C(OC)C(C)O7)C(C)O6)C(O)C(C)O5)C(C)CC(C)C4C3(C)/C(O)=C3\C(=O)OC4(CC(C)C(CO)=CC4/C=C\2C)C3=O)CC1(C)[N+](=O)[O-] (stereo not drawn), the T/C [8] is reported as 100 % of control and 104 % of control, the T/C [9] is reported as 110 % of control and 106 % of control and the T/C [10] is reported as 121 % of control.
For CC[C@]1(O)C[C@H]2CN(CCc3c([nH]c4ccccc34)[C@@](C(=O)OC)(c3cc4c(cc3OC)N(C=O)[C@H]3[C@@](O)(C(=O)OC)[C@H](OC(C)=O)[C@]5(CC)C=CCN6CC[C@]43[C@@H]65)C2)C1, the T/C (dose: 0.06 mg/kg/injection, schedule: Q01DX009 (ip), vehicle: saline) was 160 % of control, the T/C [4] was 159 % of control and 176 % of control and the T/C [5] was 171 % of control and 196 % of control. For the same compound, the T/C [6] was 190 % of control, the T/C (dose: 0.5 mg/kg/injection, schedule: Q01DX009 (ip), vehicle: water) was 108 % of control and the T/C (dose: 31.25 micrograms/kg/injection, schedule: Q01DX009 (ip), vehicle: water) was 154 % of control. For the same compound, the T/C (dose: 62.5 micrograms/kg/injection, schedule: Q01DX009 (ip), vehicle: water) was 186 % of control, the T/C (dose: 125.0 micrograms/kg/injection, schedule: Q01DX009 (ip), vehicle: water) was 193 % of control and the T/C (dose: 250.0 micrograms/kg/injection, schedule: Q01DX009 (ip), vehicle: water) was 227 % of control.
With NC(Cc1ccc(N(CCCl)Cc2ccccc2)cc1)C(=O)O (stereo not drawn) the T/C (dose: 0.78 mg/kg/injection, schedule: Q01DX009 (ip), vehicle: distilled water + Tween-80) was 99 % of control, the T/C (dose: 1.56 mg/kg/injection, schedule: Q01DX009 (ip), vehicle: distilled water + Tween-80) was 108 % of control and the T/C [11] was 115 % of control and 100 % of control. For the same compound, the T/C (dose: 6.25 mg/kg/injection, schedule: Q01DX009 (ip), vehicle: distilled water + Tween-80) was 123 % of control and 103 % of control, the T/C [12] was 110 % of control and the T/C (dose: 25.0 mg/kg/injection, schedule: Q01DX009 (ip), vehicle: distilled water + Tween-80) was 118 % of control.
CCCCc1ccc2nc(NC(=O)OC)[nH]c2c1 was tested, and the T/C [13] was 154 % of control, the T/C [1] was 165 % of control and the T/C [2] was 165 % of control.
In the case of Cc1ccc(NCCN(C)C)c2c(=O)c3cc(O)ccc3sc12, the T/C (dose: 12.0 mg/kg/injection, schedule: Q01DX009 (ip), vehicle: Klucel (hydroxypropylcellulose) (HPC)) is reported as 164 % of control, the T/C [9] is reported as 183 % of control and the T/C [10] is reported as 87 % of control.
O=C(CCl)NC(Cc1ccccc1)C(=O)O (stereo not drawn) was tested, and the T/C [1] was 88 % of control, the T/C [2] was 90 % of control and the T/C [7] was 90 % of control.
S=c1[nH]cc2cnccn12 was tested, and the T/C [14] was 94 % of control and 95 % of control, the T/C [13] was 93 % of control and 98 % of control and the T/C [1] was 93 % of control and 96 % of control. For the same compound, the T/C [2] was 97 % of control and 100 % of control, the T/C [7] was 91 % of control and 92 % of control and the T/C [3] was 97 % of control.
For COc1cccc2c1C(=O)c1c(O)c3c(c(O)c1C2=O)CC(O)(/C(C)=N/NC(=O)CCC(=O)N/N=C(\C)C1(O)Cc2c(O)c4c(c(O)c2C(OC2CC(N)C(O)C(C)O2)C1)C(=O)c1c(OC)cccc1C4=O)CC3OC1CC(N)C(O)C(C)O1 (stereo not drawn), the T/C (dose: 0.75 mg/kg/injection, schedule: Q01DX009 (ip), vehicle: water) was 171 % of control, the T/C (dose: 1.5 mg/kg/injection, schedule: Q01DX009 (ip), vehicle: water) was 171 % of control and 195 % of control and the T/C (dose: 3.0 mg/kg/injection, schedule: Q01DX009 (ip), vehicle: water) was 202 % of control and 242 % of control. For the same compound, the T/C (dose: 6.0 mg/kg/injection, schedule: Q01DX009 (ip), vehicle: water) was 250 % of control and 256 % of control and the T/C (dose: 12.0 mg/kg/injection, schedule: Q01DX009 (ip), vehicle: water) was 320 % of control.
For C/C=C1\C[C@@H]2C(OC)Nc3cc(O)c(OC)cc3C(=O)N2C1 (stereo partly drawn), the T/C (dose: 0.03 mg/kg/injection, schedule: Q01DX009 (ip), vehicle: suspension in saline) was 103 % of control, the T/C (dose: 0.06 mg/kg/injection, schedule: Q01DX009 (ip), vehicle: suspension in saline) was 109 % of control and the T/C (dose: 0.12 mg/kg/injection, schedule: Q01DX009 (ip), vehicle: suspension in saline) was 106 % of control.
With CC(=O)OC1=NC(C)c2c1cc(OC(C)=O)[nH]c2=O (stereo not drawn) the T/C (dose: 6.25 mg/kg/injection, schedule: Q01DX009 (ip), vehicle: Klucel (hydroxypropylcellulose) (HPC)) was 116 % of control and 105 % of control, the T/C [8] was 110 % of control and 98 % of control and the T/C [9] was 113 % of control and 100 % of control. The T/C [10] was 90 % of control and 101 % of control and the T/C (dose: 100.0 mg/kg/injection, schedule: Q01DX009 (ip), vehicle: Klucel (hydroxypropylcellulose) (HPC)) was 88 % of control.
In the case of Nc1nc(N)c2c(Cl)c(CNc3ccc(Cl)c(Cl)c3)ccc2n1, the T/C (dose: 3.12 mg/kg/injection, schedule: Q01DX009 (ip), vehicle: saline with Tween-80) is reported as 121 % of control, the T/C [15] is reported as 106 % of control and the T/C [14] is reported as 123 % of control.
With COc1cccc2c1C(=O)c1c(O)c3c(c(O)c1C2=O)C[C@@](O)(C(C)=O)C[C@@H]3OC1CC(N(CCO)Cc2ccccc2)C(O)C(C)O1 (stereo partly drawn) the T/C (dose: 12.5 mg/kg/injection, schedule: Q01DX001 (ip), vehicle: water) was 120 % of control and the T/C (dose: 25.0 mg/kg/injection, schedule: Q01DX001 (ip), vehicle: water) was 116 % of control.
With C[Si](C)(C)O/C=C1\CCCCC1=O the T/C [15] was 105 % of control, the T/C [14] was 104 % of control and the T/C [13] was 113 % of control. The T/C [1] was 105 % of control, the T/C [2] was 110 % of control and the T/C [7] was 97 % of control.
CCC(C(=O)O)C(=O)O.[NH-]CC1CCCC[N-]1.[Pt+2] was tested, and the T/C (dose: 6.25 mg/kg/injection, schedule: Q01DX009 (ip), vehicle: saline) was 108 % of control, the T/C [16] was 102 % of control and the T/C (dose: 12.5 mg/kg/injection, schedule: Q01DX009 (ip), vehicle: suspension in saline) was 113 % of control. For the same compound, the T/C [17] was 101 % of control, the T/C (dose: 25.0 mg/kg/injection, schedule: Q01DX009 (ip), vehicle: suspension in saline) was 115 % of control and the T/C (dose: 50.0 mg/kg/injection, schedule: Q01DX009 (ip), vehicle: suspension in saline) was 123 % of control.
In the case of O=CCC(O)C(O)C(O)CO (stereo not drawn), the T/C (dose: 300.0 mg/kg/injection, schedule: Q01DX009 (ip), vehicle: saline) is reported as 112 % of control, the T/C (dose: 600.0 mg/kg/injection, schedule: Q01DX009 (ip), vehicle: saline) is reported as 103 % of control and the T/C (dose: 1200.0 mg/kg/injection, schedule: Q01DX009 (ip), vehicle: saline) is reported as 104 % of control. The T/C (dose: 1800.0 mg/kg/injection, schedule: Q01DX009 (ip), vehicle: saline) was 108 % of control and the T/C (dose: 2400.0 mg/kg/injection, schedule: Q01DX009 (ip), vehicle: saline) was 101 % of control.
For COc1ccc2c(c1)CCn1c(C)c(COC(=O)NC(C)C)c(COC(=O)NC(C)C)c1-2, the T/C (dose: 1.5 mg/kg/injection, schedule: Q01DX009 (ip), vehicle: distilled water + Tween-80) was 114 % of control, the T/C (dose: 3.0 mg/kg/injection, schedule: Q01DX009 (ip), vehicle: distilled water + Tween-80) was 154 % of control and the T/C [11] was 150 % of control. For the same compound, the T/C (dose: 12.0 mg/kg/injection, schedule: Q01DX009 (ip), vehicle: distilled water + Tween-80) was 163 % of control and the T/C [12] was 180 % of control.
In the case of O=C1c2cccc3cc([N+](=O)[O-])cc(c23)C(=O)N1CCN1CCCC1, the T/C [15] is reported as 122 % of control and the T/C [13] is reported as 108 % of control.
c1cn[nH]c1 was tested, and the T/C [16] was 94 % of control, the T/C [17] was 118 % of control and the T/C (dose: 50.0 mg/kg/injection, schedule: Q01DX009 (ip), vehicle: saline) was 118 % of control. For the same compound, the T/C (dose: 100.0 mg/kg/injection, schedule: Q01DX009 (ip), vehicle: saline) was 106 % of control.
